Experimental findings from patent publication US9771341B2, “Piperazine carbamates and methods of making and using same” (Abide Therapeutics, Inc., priority 2015, dated 2017) are described below.

The structures appear in SMILES notation.

For experiment [1], the target named is T1, ABHD6 (Mus musculus, UniProt Q8R2Y0).
T1 construct: Proteomes (mouse brain membrane fraction or cell lysates); from tissue; host or cells: mouse brain membrane fraction (or unspecified cell lysates)
T1 sequence (Q8R2Y0 1-336): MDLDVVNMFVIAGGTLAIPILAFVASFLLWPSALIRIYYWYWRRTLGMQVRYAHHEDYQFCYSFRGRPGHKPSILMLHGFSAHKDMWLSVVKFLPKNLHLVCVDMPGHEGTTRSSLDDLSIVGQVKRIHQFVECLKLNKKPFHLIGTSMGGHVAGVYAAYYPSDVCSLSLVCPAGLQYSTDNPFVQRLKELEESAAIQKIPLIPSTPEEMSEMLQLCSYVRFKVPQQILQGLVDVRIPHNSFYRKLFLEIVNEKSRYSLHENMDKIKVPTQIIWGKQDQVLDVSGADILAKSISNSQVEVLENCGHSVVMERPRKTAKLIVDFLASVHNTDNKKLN
Nature of the experiment: Mouse brain proteomes from inhibitor treated mice, ABHD6. The experiment is classed as in vivo. Conditions: 5 mg/kg oral gavage, C57Bl/6J mice, brain proteome 4 h after administration. How it is done: (§1) Preparation of Mouse Brain Proteomes from Inhibitor Treated Mice.
(§2) Inhibitors were administered to wild-type C57Bl/6J by oral gavage in a vehicle of polyethylene glycol.

Experiment [2] deals with T1, ABHD6. The experiment in a line: In vitro competitive activity-based protein profiling (mouse), ABHD6. The experiment is classed as biochemical. As to conditions: for inhibition at 1 µM: mouse proteome, in vitro, read-out: % Inhibition at 1 μM ABHD6; for IC50: mouse brain membrane fraction or cell lysates, 30 min preincubation at 37° C, FP-Rh probe. How it is done: (§3) In Vitro Competitive Activity-Based Protein Profiling (Mouse).
(§4) Proteomes (mouse brain membrane fraction or cell lysates) (50 μL, 1.0 mg/mL total protein concentration) were preincubated with varying concentrations of inhibitors at 37° C. After 30 min, FP-Rh (1.0 μL, 50 μM in DMSO) was added and the mixture was incubated for another 30 min at 37° C. Reactions were quenched with SDS loading buffer (50 μL-4×) and run on SDS-PAGE.

Experiment [3] addresses T2, MAGL (Mus musculus, UniProt O35678).
T2 construct: Proteomes (mouse brain membrane fraction or cell lysates); from tissue; host or cells: mouse brain membrane fraction (or unspecified cell lysates)
T2 sequence (O35678 1-303): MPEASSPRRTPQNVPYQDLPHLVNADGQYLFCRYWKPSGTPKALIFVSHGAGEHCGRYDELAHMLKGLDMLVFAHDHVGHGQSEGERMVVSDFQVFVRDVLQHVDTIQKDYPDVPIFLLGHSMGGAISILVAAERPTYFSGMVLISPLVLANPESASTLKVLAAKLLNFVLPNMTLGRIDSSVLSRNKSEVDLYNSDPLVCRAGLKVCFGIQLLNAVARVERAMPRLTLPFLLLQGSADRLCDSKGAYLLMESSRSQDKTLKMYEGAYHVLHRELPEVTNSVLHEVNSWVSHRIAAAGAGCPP
The experiment in a line: In vitro competitive activity-based protein profiling (mouse), MAGL. The experiment is classed as biochemical. As to conditions: for inhibition at 1 µM: mouse proteome, in vitro, read-out: % Inhibition at 1 μM MAGL; for IC50: mouse brain membrane fraction or cell lysates, 30 min preincubation at 37° C, FP-Rh probe. The procedure: as §3, §4

The target of experiment [4] is T3, FAAH (Mus musculus, UniProt O08914).
T3 construct: Proteomes (mouse brain membrane fraction or cell lysates); from tissue; host or cells: mouse brain membrane fraction (or unspecified cell lysates)
T3 sequence (O08914 1-579): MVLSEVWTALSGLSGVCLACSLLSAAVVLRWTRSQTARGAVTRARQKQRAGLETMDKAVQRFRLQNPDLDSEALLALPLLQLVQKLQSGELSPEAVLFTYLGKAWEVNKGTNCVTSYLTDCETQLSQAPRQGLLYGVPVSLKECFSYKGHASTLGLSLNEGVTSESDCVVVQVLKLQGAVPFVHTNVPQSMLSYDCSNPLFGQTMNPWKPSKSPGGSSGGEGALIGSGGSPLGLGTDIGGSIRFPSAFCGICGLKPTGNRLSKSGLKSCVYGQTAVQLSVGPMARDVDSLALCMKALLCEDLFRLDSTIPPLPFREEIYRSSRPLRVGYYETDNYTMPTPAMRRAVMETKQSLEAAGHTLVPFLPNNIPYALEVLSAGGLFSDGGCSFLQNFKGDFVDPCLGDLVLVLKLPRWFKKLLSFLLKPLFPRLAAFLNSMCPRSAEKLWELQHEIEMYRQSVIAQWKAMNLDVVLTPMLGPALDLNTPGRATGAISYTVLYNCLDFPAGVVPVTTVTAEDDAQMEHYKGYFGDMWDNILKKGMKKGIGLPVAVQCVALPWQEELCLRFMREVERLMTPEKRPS
The experiment in a line: Mouse brain proteomes from inhibitor treated mice, FAAH. The experiment is classed as in vivo. As to conditions: 5 mg/kg oral gavage, C57Bl/6J mice, brain proteome 4 h after administration. How it is done: as §1
Inhibitors were administered to wild-type C57Bl/6J by oral gavage in a vehicle of polyethylene glycol. Each animal was sacrificed 4 h following administration and brain proteomes were prepared and analyzed according to previously established methods (See Niphakis, M. J., et al. (2011) ACS Chem. Neurosci. and Long, J. Z., et al. Nat. Chem. Biol. 5:37-44)

Experiment [5] deals with T3, FAAH. The experiment in a line: In vitro competitive activity-based protein profiling (mouse), FAAH. The experiment is classed as biochemical. As to conditions: for inhibition at 1 µM: mouse proteome, in vitro; for IC50: mouse brain membrane fraction or cell lysates, 30 min preincubation at 37° C, FP-Rh probe. The method, boiled down: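 Competitive ABPP: inhibitor exposure (30 min, 37° C) of mouse brain membrane or lysate proteome at 1.0 mg/mL, then labelling with FP-Rh for another 30 min. Activity quantified by in-gel fluorescence of FAAH bands after SDS-PAGE.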

Experiment [6] has as its target T2, MAGL. The experiment in a line: Mouse brain proteomes from inhibitor treated mice, MAGL. The experiment is classed as in vivo. Conditions: 5 mg/kg oral gavage, C57Bl/6J mice, brain proteome 4 h after administration. The procedure: as §1, §2

For the compound `O=C(O)C1CN(c2cc(C(F)(F)F)ccc2CN2CCN(C(=O)OC(C(F)(F)F)C(F)(F)F)CC2)CCO1` (stereo not drawn) [Example 75, 4-(2-((4-(((1,1,1,3,3,3-hexafluoropropan-2-yl)oxy)carbonyl)piperazin-1-yl)methyl)-5-(trifluoromethyl)phenyl)morpholine-2-carboxylic acid], the inhibition at 5 mg/kg in experiment [1], in experiment [4] and in experiment [6] was less than 25% in each case. The inhibition at 1 µM in experiment [2] was less than 25%; in experiment [3] it was more than 75%; in experiment [5], less than 25%. In addition, the figures for the IC50 in experiment [2], in experiment [3] and in experiment [5] were more than 1000 nM, less than 100 nM and more than 1000 nM, respectively.
Take `O=C(O)[C@@H]1CCCN1c1cc(CN2CCN(C(=O)OC(C(F)(F)F)C(F)(F)F)CC2)cc(C(F)(F)F)c1` [Example 86, (3-((4-(((1,1,1,3,3,3-hexafluoropropan-2-yl)oxy)carbonyl)piperazin-1-yl)methyl)-5-(trifluoromethyl)phenyl)proline]: the inhibition at 5 mg/kg in experiment [1] is more than 75%; in experiment [4] it was less than 25%; in experiment [6], more than 75%. Besides, the values for the inhibition at 1 µM in experiment [2], in experiment [3] and in experiment [5] were 25 to 75%, more than 75% and less than 25%, respectively. Also, the IC50 in experiment [2] was 100 to 1000 nM; in experiment [3], 100 to 1000 nM; in experiment [5] it was more than 1000 nM.
